In patent US11938121B2, “Treatment of infections and biofilm formation using a cellulose synthase inhibitor” (Purdue Research Foundation, priority 2020, dated 2024) one finds Kd data, which are given here for 1 compound.

This experiment concerns the target T1, GFP-CESA6c: GFP-tagged central cytosolic domain of AtCESA6 (cellulose synthase, CESA6) with a His-SUMO tag (Arabidopsis thaliana, UniProt Q94JQ6).
T1 construct: His-SUMO; made in house; host or cells: E. coli
T1 sequence (Q94JQ6 322-868 limits assumed): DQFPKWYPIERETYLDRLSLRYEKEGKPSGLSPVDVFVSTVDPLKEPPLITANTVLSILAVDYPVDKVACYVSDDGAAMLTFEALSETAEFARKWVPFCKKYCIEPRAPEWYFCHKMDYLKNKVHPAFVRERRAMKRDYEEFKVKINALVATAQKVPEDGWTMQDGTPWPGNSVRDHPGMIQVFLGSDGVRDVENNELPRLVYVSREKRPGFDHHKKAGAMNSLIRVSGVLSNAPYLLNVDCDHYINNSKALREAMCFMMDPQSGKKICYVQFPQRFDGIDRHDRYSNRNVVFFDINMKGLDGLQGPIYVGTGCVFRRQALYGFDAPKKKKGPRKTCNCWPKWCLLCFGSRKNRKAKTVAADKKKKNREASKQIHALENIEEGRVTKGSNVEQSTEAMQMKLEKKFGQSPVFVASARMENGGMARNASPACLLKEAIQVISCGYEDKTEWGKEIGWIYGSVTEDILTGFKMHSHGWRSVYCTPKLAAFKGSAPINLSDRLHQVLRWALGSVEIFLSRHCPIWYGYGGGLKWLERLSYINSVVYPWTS
The experiment in a line: Microscale thermophoresis (MST) binding to purified GFP-tagged CESA6c (wild-type). Particulars: FIGS. 3K-3M, 100 nM GFP-CESA6c purified from E. coli, pH 7.5, 10 mM MgCl2, 0.05% Tween 20, 5% DMSO, triplicate, read-out: Kd, thermophoresis binding curve, GFP-CESA6c. The source says: FIGS. 3A-3Q. […] FIG. 3A to FIG. 3G. […] FIG. 3A. Representative 5-day-old dark-grown Arabidopsis Col-0 seedlings grown on growth medium supplemented with different concentrations of ES20 or ES20-1. Scale bar: 1 cm. FIG. 3B. Quantification of hypocotyl length of 5-day-old dark-grown Arabidopsis Col-0 seedlings described in FIG. 3A. Data represent mean±SD (n=12 seedlings). FIG. 3C. Quantification of crystalline cellulose content in the hypocotyl cell walls of 7-day-old dark-grown Col-0 seedlings grown on growth medium supplemented with DMSO (0.1%), 1 μM ES20, or 1 μM ES20-1. Data represent mean±SD (n=3 biological replicates). FIG. 3D and FIG. 3E. […] FIG. 3D. Representative image of 6-day-old rice seedlings grown in sterile water supplemented with DMSO (0.1%), 20 μM ES20, or 20 μM ES20-1. Scale bar: 1 cm. FIG. 3E. Quantification of root length of rice seedlings as described in FIG. 3D. Data represent mean±SD (n=10 seedlings). FIG. 3F and FIG. 3G. […] FIG. 3F. Representative image of 6-day-old maize seedlings grown in sterile water supplemented with DMSO (0.1%), 20 μM ES20, or 20 μM ES20-1. Scale bar: 1 cm. FIG. 3G. Quantification of root length of maize seedlings as described in FIG. 3F. Data represent mean±SD (n=12 seedlings). […] FIG. 3H. Representative immunoblot from a DARTS assay of ES20-1 and YFP-AtCESA6. FIG. 3I. Quantitative analysis of the band intensity of YFP-AtCESA6 and SEC12 in ES20-1-treated samples divided by that of DMSO-treated samples in the DARTS assay described in FIG. 3H. Data represent mean±SD (n=6 biological replicates). FIGS. 3J-3N. […] FIG. 3J. Coomassie blue staining of purified GFP-tagged CESA6c with a His-SUMO tag (lane 2). FIGS. 3K, 3L, 3M, 3N. […] FIG. 3O. Coomassie blue staining of purified GFP-tagged CESA6c^P595S with a His-SUMO tag (lane 2). FIG. 3P and FIG. 3Q. […] Statistically significant differences in FIG. 3B were determined using one-way ANOVA followed by Tukey's multiple comparisons test. Lower-case letters represent ANOVA results for plants grown on medium with 0.1% DMSO, different concentrations of ES20 or ES20-1. […]
On the technique in general: Microscale thermophoresis detects binding through changes in fluorescence in a small temperature gradient.

With `Cc1ccccc1C(=O)NNC(=S)NC(=O)c1ccccc1` [ES20-1], the equilibrium dissociation constant (Kd) is 4.4 ± 2.5 µM.

A word on the Kd: it is the constant that tells how readily two partners part at equilibrium.
